Molecules are shown by their SMILES.

The test deals with Mus musculus. Description: Antiinflammatory activity against mouse assessed as inhibition TPA-induced ear edema at 0.5 mg/kg. The class given is functional. Also on record: scale not given: the % may be the effect or the level left.
Take `C=C1CC[C@@H](O)[C@]2(C)CC[C@@H](C(C)C)[C@@H](O)[C@@H]12`: the Activity is listed as 29.9%.
To `CC1=CC[C@@H](O)[C@]2(C)CC[C@H](C(C)C)[C@H](O)[C@@H]12` belongs 28%; to `C=C1CC[C@@H]2[C@H]([C@H]3[C@H]1CC[C@]3(C)O)C2(C)C` [SPATHULENOL], 31.5%.

These data come from ChEMBL document CHEMBL1151221, “Three new sesquiterpenes from Croton arboreous” (2004).
